Format in all cases: in vivo
Test [1] concerns Spodoptera frugiperda. Description: Insecticidal activity assay, corn leaf dip, 3rd instar larvae. The conditions noted are these: liquid concentration 0.3 ppm, 48 h. As for the experimental part: (§1) The compound of the present invention was dissolved in acetone, and then diluted with water into liquids with gradients of different concentrations (ppm). Corn leaves were soaked in liquids of different concentrations for about 20 seconds, air-dried and then placed in petri dishes where 3rd instar Spodoptera frugiperda were placed, respectively; kale leaves were soaked in liquids of different concentrations for about 20 seconds, air-dried and then placed in petri dishes where 3rd instar Spodoptera frugiperda were placed, respectively; peanut leaves were soaked in liquids of different concentrations for about 20 seconds, air-dried and then placed in petri dishes where Tetranychus urticae (adult mite) and Aphis craccivora (adult aphid) were placed, respectively; water bamboo leaves were soaked in liquids of different concentrations for about 20 seconds, air-dried and then placed in petri dishes where 4th instar Chilo suppressalis were placed, respectively. Each petri dish was placed with 10 insects, covered and then stored at 25° C. in a constant temperature room. The number of dead insects were checked after 48 h. The dead insect rate was calculated by the formula: Death rate (%)=(Number of dead insects/Number of test insects)×100. Furthermore, the experiment was conducted in two replications.

Another test has as its system Spodoptera exigua. Description: Insecticidal activity assay, kale leaf dip, 3rd instar larvae. The conditions noted are these: liquid concentration 0.3 ppm, 48 h.
The subject of a further test is Aphis craccivora. Description: Insecticidal activity assay, peanut leaf dip, adult aphid. The conditions noted are these: liquid concentration 8.1 ppm, 48 h. As for the experimental part:
as §1

For another test, the system named is Tetranychus urticae. Description: Insecticidal activity assay, peanut leaf dip, adult mite. Conditions: 48 h. As to the method: as §1
For a further test, the system named is Chilo suppressalis. Kind of test: Insecticidal activity assay, water bamboo leaf dip, 4th instar larvae. Conditions: liquid concentration 0.4 ppm, 48 h. As for the experimental part: as §1
The subject of test [2] is Spodoptera frugiperda. Description: Assay of insecticidal activity of compositions (synergism), 3rd instar. The conditions noted are these: A 0.1 ppm. As to the method: as §1
• Test targets: Spodoptera frugiperda (3rd instar) and Aphis gossypii (adult aphid) […]
(§2) Different ratios within the selected ratio range were set for toxicity determination, and the optimal ratio was selected according to synergistic effects. When the synergistic effect >0, it indicated a synergistic effect; when the synergistic effect is close to 0, it indicated an addition effect; when the synergistic effect <0, it indicated an antagonistic effect.
(§3) [formula] • wherein, P1, P2—Death rate by each individual agent in a mixed formulation.

For another test, the system named is Aphis gossypii. Description: Assay of insecticidal activity of compositions (synergism), zucchini leaves, adult aphid. Conditions: for pest or weed control at 1 µg/mL / pest or weed control at 5 µg/mL: in Cucurbita pepo, 48 h, read-out: Death rate by individual B; for pest or weed control at 5 µg/mL: B 5 ppm. As for the experimental part: as §1
• Test targets: Spodoptera frugiperda (3rd instar) and Aphis gossypii (adult aphid)
Referring to the above-mentioned Insecticidal activity assay, when the test target was Aphis gossypii, the zucchini leaves were selected.
as §2, §3

Take `COC(=O)[C@@H](C)NC(=O)c1ccc(C2=NOC(c3cc(Cl)cc(Cl)c3)(C(F)(F)F)C2)cc1C` (stereo partly drawn) [Control compound A, reference compound]: the Death rate stood at 70% with Spodoptera frugiperda [1]; 30% in the test with Spodoptera exigua; 20% in the test on Aphis craccivora; 25% in the test on Tetranychus urticae (liquid concentration 8.1 ppm); 40% in the test with Chilo suppressalis.
Take `COC(=O)[C@@H](C)NC(=O)c1ccc(C2=NOC(c3cc(Cl)c(Cl)c(C(F)(F)F)c3)(C(F)(F)F)C2)cc1C` (stereo partly drawn) [Compound 3 (2R)]: the Death rate in the test with Spodoptera frugiperda [1] was 100%; in the test with Spodoptera exigua, 77%; in the test with Aphis craccivora it was 93%; in the test on Tetranychus urticae (liquid concentration 0.9 ppm), 100%; in the test on Chilo suppressalis it was 100%. Besides, the figures for the “Death rate by individual A” value with Spodoptera frugiperda [2] and in the test on Aphis gossypii (A 0.1 ppm) were 72% and 38%, respectively.
As to `CCc1cc(C2=NOC(c3cc(Cl)c(Cl)c(C(F)(F)F)c3)(C(F)(F)F)C2)ccc1C(=O)NC(C)C(=O)OC` (mixture of isomers) [140 (2R)], the Death rate with Spodoptera frugiperda [1], in the test with Spodoptera exigua, in the test on Aphis craccivora, in the test on Tetranychus urticae (liquid concentration 8.1 ppm) and in the test with Chilo suppressalis was 100% throughout.
As to `COC(=O)C(C)NC(=O)c1ccc(C2=NOC(c3cc(Cl)c(F)c(C(F)(F)F)c3)(C(F)(F)F)C2)cc1C` [Compound 2 (5S, 2R)], the Death rate in the test with Spodoptera frugiperda [1], with Spodoptera exigua, in the test with Aphis craccivora, in the test on Tetranychus urticae (liquid concentration 0.9 ppm) and in the test with Chilo suppressalis was 100% in each case.
On to `CC(C)=NOC(=O)[C@@H](C)NC(=O)c1ccc(C2=NOC(c3cc(Cl)c(Cl)c(C(F)(F)F)c3)(C(F)(F)F)C2)cc1C` (stereo partly drawn) [Compound 80 (2R)], for which the Death rate with Spodoptera frugiperda [1], with Spodoptera exigua, in the test on Aphis craccivora, in the test with Tetranychus urticae (liquid concentration 8.1 ppm) and in the test on Chilo suppressalis was 100% in each case.
On to `O=[N+]([O-])NC1=NCCN1Cc1ccc(Cl)nc1` [Imidacloprid, reference compound], for which, in the test with Aphis gossypii (B 1 ppm), the pest or weed control at 1 µg/mL came to 53%.
Turning to `COC(=O)C(C)NC(=O)c1ccc(C2=NOC(c3cc(Cl)c(Cl)c(C(F)(F)F)c3)(C(F)(F)F)C2)cc1C(F)(F)F` (mixture of isomers) [147 (2R)], the Death rate in the test on Spodoptera frugiperda [1], in the test on Spodoptera exigua, in the test on Aphis craccivora, with Tetranychus urticae (liquid concentration 8.1 ppm) and in the test with Chilo suppressalis was 100% throughout.
Consider `C/C(=N\C#N)N(C)Cc1ccc(Cl)nc1` [Acetamiprid, reference compound], for which, in the test on Aphis gossypii (B 1 ppm), the pest or weed control at 1 µg/mL amounted to 52%.
Turning to `CC[S+]([O-])c1c(C#N)nn(-c2c(Cl)cc(C(F)(F)F)cc2Cl)c1N` (stereo not drawn) [Ethiprole, reference compound], the pest or weed control at 5 µg/mL in the test on Aphis gossypii amounted to 33%.
As for `C[C@]1(COC(=O)C2CC2)[C@@H]2C[C@H](O)[C@@]3(C)Oc4cc(-c5cccnc5)oc(=O)c4[C@H](O)[C@@H]3[C@@]2(C)CC[C@@H]1OC(=O)C1CC1` [Afidopyropen, reference compound], the “Death rate by individual B” value in the test with Aphis gossypii (B 1 ppm) is listed as 68%.
For the compound `COC(=O)[C@@H](C)NC(=O)c1ncc(C2=NOC(c3cc(Cl)c(Cl)c(C(F)(F)F)c3)(C(F)(F)F)C2)cc1C` (stereo partly drawn) [Compound 154 (2R)], the Death rate with Spodoptera frugiperda [1] stood at 100%; with Spodoptera exigua it was 77%; in the test on Aphis craccivora, 93%; in the test with Tetranychus urticae (liquid concentration 0.9 ppm), 100%; in the test on Chilo suppressalis it was 100%.
Turning to `COC(=O)CNC(=O)c1ccc(C2=NO[C@@](c3cc(Cl)c(Cl)c(C(F)(F)F)c3)(C(F)(F)F)C2)cc1C` [188 (5S)], the Death rate with Spodoptera frugiperda [1], with Spodoptera exigua, in the test on Aphis craccivora, in the test on Tetranychus urticae (liquid concentration 8.1 ppm) and in the test with Chilo suppressalis was 100% in each case.
For `COC(=O)C(C)NC(=O)c1ccc(C2=NOC(c3cc(Cl)cc(C(F)(F)F)c3)(C(F)(F)F)C2)cc1C` (mixture of isomers) [1 (2R)], the Death rate with Spodoptera frugiperda [1] is 100%; in the test with Spodoptera exigua, 90%; in the test on Aphis craccivora it was 83%; with Tetranychus urticae (liquid concentration 8.1 ppm), 83%; with Chilo suppressalis, 100%.
In the case of `CN/C(=N\[N+](=O)[O-])NCc1cnc(Cl)s1` [Clothianidin, reference compound], the pest or weed control at 5 µg/mL with Aphis gossypii was found to be 42%.
Turning to `COC(=O)[C@@H](C)NC(=O)c1ccc(C2=NOC(c3cc(Cl)c(Cl)c(C(F)(F)F)c3)(C(F)(F)F)C2)cc1Cl` (stereo partly drawn) [Compound 144 (2R)], the Death rate in the test with Spodoptera frugiperda [1], in the test on Spodoptera exigua, in the test on Aphis craccivora, in the test with Tetranychus urticae (liquid concentration 8.1 ppm) and in the test with Chilo suppressalis was 100% throughout.
Take `COC(=O)C(C)NC(=O)c1ccc(C2=NOC(c3cc(Cl)c(F)c(C(F)(F)F)c3)(C(F)(F)F)C2)cc1C` (mixture of isomers) [2 (2R)]: the Death rate stood at 100% in the test on Spodoptera frugiperda [1]; 90% in the test with Spodoptera exigua; 90% in the test on Aphis craccivora; 100% in the test with Tetranychus urticae (liquid concentration 0.9 ppm); 100% in the test on Chilo suppressalis.
Turning to `CN/C(=N/CC1CCOC1)N[N+](=O)[O-]` (stereo not drawn) [Dinotefuran, reference compound], the pest or weed control at 5 µg/mL in the test with Aphis gossypii worked out at 40%.

Source of the values: patent US20260209189A1, “ISOXAZOLINE-SUBSTITUTED BENZAMIDE COMPOUND AND APPLICATION THEREOF” (priority 2022, published 2026).
